The target of one experiment is T1, GST-PPARG-LBD (Homo sapiens, UniProt P37231).
T1 construct: A mixture of 5 nM GST-PPARG-LBD; purchased Invitrogen
T1 sequence (P37231 238-503 limits assumed): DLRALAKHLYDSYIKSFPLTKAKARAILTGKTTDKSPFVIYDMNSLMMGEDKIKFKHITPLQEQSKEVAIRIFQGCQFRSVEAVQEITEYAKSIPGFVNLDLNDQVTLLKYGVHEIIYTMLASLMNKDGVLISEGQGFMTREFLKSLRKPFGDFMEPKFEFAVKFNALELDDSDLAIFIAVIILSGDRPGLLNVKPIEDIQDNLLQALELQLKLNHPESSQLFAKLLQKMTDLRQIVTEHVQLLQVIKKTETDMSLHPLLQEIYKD
In words: Lanthascreen PPARG competitive binding assay (Invitrogen). The conditions noted are these: Table 3; read-out: IC50 (nM) Lantha. As to the method: Lanthascreen PPARG Competitive Binding Assay (Invitrogen)
The assay was performed according to manufacturer protocol. A mixture of 5 nM GST-PPARG-LBD, 5 nM Tb-GST-antibody, […] Pan-PPAR Green, and serial dilutions of the experimental compound, beginning at 10 μM downwards, was added to wells of black 384-well low-volume plates (Greiner) to a total volume of 18 μL. All dilutions were made in TR-FRET assay buffer C. DMSO at 2% final concentration was used as a no-ligand control. Experiment was performed in triplicate, and incubated tier 2 hours in the dark prior to assay read in Perkin Elmer ViewLux ultra HTS microplate reader. FRET signal was measured by excitation at 340 nm and emission at 520 nm for fluorescein and […] for terbium. Fold change over DMSO was calculated using GraphPad Prism Software (La Jolla, Calif.) by calculating 520 nm/490 nm ratio. Graphs were plotted as fold change of FRET signal for compound treatment over DMSO-only control.
(TR-FRET usually uses a lanthanide donor and a delayed reading to cut background.)

Experiment [1] deals with T2, PPARG (Homo sapiens, UniProt P37231).
T2 sequence (P37231 204-505): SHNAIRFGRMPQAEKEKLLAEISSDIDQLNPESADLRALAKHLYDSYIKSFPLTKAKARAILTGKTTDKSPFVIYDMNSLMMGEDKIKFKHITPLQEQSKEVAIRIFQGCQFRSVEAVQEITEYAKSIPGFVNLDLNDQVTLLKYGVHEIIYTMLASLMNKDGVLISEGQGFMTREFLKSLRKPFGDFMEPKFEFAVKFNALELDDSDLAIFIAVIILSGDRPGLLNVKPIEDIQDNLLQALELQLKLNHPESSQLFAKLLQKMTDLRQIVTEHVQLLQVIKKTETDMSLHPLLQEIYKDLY
The experiment can be described thus: Gal 4 assay (ED50 and % act). It counts as cell-based. The settings on record: for activation at 1 µM: read-out: GL 4% act 1 μM; for activation at 10 µM: read-out: GL 4% act 10 μM.

Experiment [2] concerns the target T3, PPARG (UniProt P37231).
T3 construct: PPRE % act 1 μM; other: 1 μM
T3 sequence (P37231 1-505): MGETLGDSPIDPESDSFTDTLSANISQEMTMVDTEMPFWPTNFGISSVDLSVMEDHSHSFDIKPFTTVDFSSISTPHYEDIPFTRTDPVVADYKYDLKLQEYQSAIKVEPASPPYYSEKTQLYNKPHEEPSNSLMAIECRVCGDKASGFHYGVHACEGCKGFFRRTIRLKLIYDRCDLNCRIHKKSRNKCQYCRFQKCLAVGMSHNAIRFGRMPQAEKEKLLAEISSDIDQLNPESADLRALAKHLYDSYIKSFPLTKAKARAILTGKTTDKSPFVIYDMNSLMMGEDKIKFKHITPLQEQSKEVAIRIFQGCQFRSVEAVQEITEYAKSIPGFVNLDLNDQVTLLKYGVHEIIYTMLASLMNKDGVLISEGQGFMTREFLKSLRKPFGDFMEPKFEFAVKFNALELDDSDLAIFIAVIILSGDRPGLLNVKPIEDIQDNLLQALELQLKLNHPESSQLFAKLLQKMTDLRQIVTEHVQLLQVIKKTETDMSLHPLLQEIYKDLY
The experiment can be described thus: Cell-based transactivation assay (PPRE-luciferase reporter co-transfected with PPARG in COS-1 cells). More on the design: species or system human or mouse. As to the method: (§1) Cell-Based Transactivation Assay:
(§2) PPRE is a DNA that contains a binding site for PPARG; thus PPRE is a PPAR response element, used herein as a promoter reporter. The binding site is a DR1 response element with the sequence AGGTCA repeated 3 times in tandem and then fused to a construct for luciferase.
(§3) Thus, PPRE is the basis of the cell based transactivation assay described below. The plasmid DNA is co-transfected along with a plasmid for PPARG into COS-1 cells. After an overnight incubation, cells are treated with DMSO or compounds.
(§4) Confluent COS-1 cells were transfected with 4.5 μg murine PPARg2-pSV Sport. or full-length human PPARg-pSport6, 4.5 μg 3×PPRE-luciferase reporter and 27 μL X-treme Gene 9 transfection reagent in serum-free opti-mem media (Gibco), followed by overnight incubation at 37° C., 5% CO2. Transfected cells were plated in white Perkin Elmer 384-well plates and incubated 4 hours. […] After 18 hour incubation, treated cells were developed with Brite Lite Plus (Perkin Elmer) and read in 384-well Luminescence Perkin Elmer En Vision Multilabel plate reader. Graphs were plotted in triplicate in GraphPad Prism Software as fold change of treated cells over DMSO control cells.
For orientation: In a reporter assay the amount or activity of a reporter protein is the signal.

The subject of experiment [3] is PPARG. Described as above. The arrangement: species or system human or mouse. The conditions noted are these: COS-1 cells. As to the method: as §1, §2, §3, §4

On to `CC(C)CCNC(=O)c1ccc2c(c1)ncn2Cc1ccc(-c2ccccc2C(=O)O)cc1` [Compound 18, 4′-((5-(isopentylcarbamoyl)-1H-benzo[d]imidazol-1-yl)methyl)-[1,1′-biphenyl]-2-carboxylic acid], for which, on GST-PPARG-LBD, the IC50 (commonly the concentration that inhibits the measured activity by half) worked out at 2430 nM.

On to `CC(C)CC(C)NC(=O)c1ccc2ncn(Cc3ccc(-c4ccccc4C(=O)O)cc3)c2c1` (centres unmarked) [Compound 19, 4′-((6-(4-methylpentan-2-ylcarbamoyl)-1H-benzo[d]imidazol-1-yl)methyl)biphenyl-2-carboxylic acid], for which the IC50 at GST-PPARG-LBD was found to be 9.02 nM.

As to `CC(C)CCC(C)NC(=O)c1ccc2c(c1)ncn2Cc1ccc(-c2ccccc2C(=O)O)cc1` (centres unmarked) [Compound 13, 4′-((5-(5-methylhexan-2-ylcarbamoyl)-1H-benzo[d]imidazol-1-yl)methyl)biphenyl-2-carboxylic acid], the IC50 on GST-PPARG-LBD amounted to 26.7 nM. Moreover, on PPARG [1], the activation at 1 µM was found to be 22.5% and the activation at 10 µM is 60.5%.

In the case of `Cc1nc2cc(C(=O)N[C@@H](C)c3cccc(C(C)C)c3)ccc2n1Cc1ccc(-c2cccnc2C(=O)O)cc1` [Compound 29, (S)-3-(4-((5-(1-(3-isopropylphenyl)ethylcarbamoyl)-2-methyl-1H-benzo[d]imidazol-1-yl)methyl)phenyl)picolinic acid], at GST-PPARG-LBD, the IC50 came to 4800 nM.

For `CC(C)c1cccc([C@H](C)NC(=O)c2ccc3c(c2)ncn3Cc2ccc(-c3ccccc3C(=O)O)nc2)c1` [Compound 27, (S)-2-(5-((5-((1-(3-isopropylphenyl)ethyl)carbamoyl)-1H-benzo[d]imidazol-1-yl)methyl)pyridin-2-yl)benzoic acid], the IC50 on GST-PPARG-LBD amounted to 8740 nM.

Turning to `COCCCNC(=O)c1ccc2c(c1)ncn2Cc1ccc(-c2ccccc2C(=O)O)cc1` [Compound 15, 4′-((5-(3-methoxypropylcarbamoyl)-1H-benzo[d]imidazol-1-yl)methyl)biphenyl-2-carboxylic acid], on GST-PPARG-LBD, the IC50 was 15000 nM.

In the case of `CC(C)CC(C)NC(=O)c1ccc2c(c1)ncn2Cc1ccc(-c2ccccc2C(=O)O)cc1` (centres unmarked) [Compound 14, 4′((5-((4-methylpentan-2-yl)carbamoyl)-1H-benzo[d]imidazol-1-yl)methyl)-[1,1′-biphenyl]-2-carboxylic acid], the IC50 at GST-PPARG-LBD was determined as 102 nM. At PPARG [1], the activation at 1 µM amounted to 7.71% and the activation at 10 µM was 32.2%.

On to `CC(C)c1cccc([C@H](C)NC(=O)c2ccc3c(c2)ncn3Cc2ccc(-c3ccccc3C(O)C(F)(F)F)cc2)c1` (stereo partly drawn) [Compound 26, N—((S)-1-(3-isopropylphenyl)ethyl)-1-((2′-(2,2,2-trifluoro-1-hydroxyethyl)biphenyl-4-yl)methyl)-1H-benzo[d]imidazole-5-carboxamide], for which, at GST-PPARG-LBD, the IC50 is 15700 nM.

Regarding `CC(C)CCC(C)NC(=O)c1ccc2ncn(Cc3ccc(-c4ccccc4C(=O)O)cc3)c2c1` (centres unmarked) [Compound 20], on GST-PPARG-LBD, the IC50 came to 2550 nM.

Turning to `CCOCCNC(=O)c1ccc2c(c1)ncn2Cc1ccc(-c2ccccc2C(=O)O)cc1` [Compound 16, 4′-((5-(2-ethoxyethylcarbamoyl)-1H-benzo[d]imidazol-1-yl)methyl)biphenyl-2-carboxylic acid], the IC50 at GST-PPARG-LBD was 9790 nM.

With `CC(C)c1cccc([C@H](C)NC(=O)c2ccc3c(c2)ncn3Cc2ccc(-c3ccccc3C(=O)O)cc2)c1` [Compound 23], the 50% inhibitory concentration (IC50) on GST-PPARG-LBD stood at 683 nM. Further, the “PPRE % act 1 μM” value on PPARG [2] (1 μM) is reported as −10.26%. In addition, a half-maximal effect at PPARG [2] (Table 3) (EC50) was put at 1.61 nM. Further, the activation at 1 µM on PPARG [1] was 12.9%.

Take `COC(=O)c1ccccc1-c1ccc(Cn2cnc3cc(C(=O)N[C@@H](C)c4cccc(C(C)C)c4)ccc32)cn1` [Compound 28, (S)-methyl 2-(5-((5-((1-(3-isopropylphenyl)ethyl)carbamoyl)-1H-benzo[d]imidazol-1-yl)methyl)pyridin-2-yl)benzoate]: the IC50 on GST-PPARG-LBD was 9070 nM.

Consider `CC(C)c1cccc([C@H](C)NC(=O)c2ccc3c(c2)ncn3Cc2ccc(-c3ccccc3C(=O)O)cc2)c1` [Compound 22, (S)-4′-((5-(1-(3-isopropylphenyl)ethylcarbamoyl)-1H-benzo[d]imidazol-1-yl)methyl)biphenyl-2-carboxylic acid], for which the IC50 on GST-PPARG-LBD was found to be 1830 nM.

As for `Cc1nc2cc(C(=O)N[C@@H](C)c3cccc(C(C)C)c3)ccc2n1Cc1ccc(-c2ccccc2C(O)C(F)(F)F)cc1` (stereo partly drawn) [Compound 25, N—((S)-1-(3-isopropylphenyl)ethyl)-2-methyl-1-((2′-(2,2,2-trifluoro-1-hydroxyethyl)biphenyl-4-yl)methyl)-1H-benzo[d]imidazole-5-carboxamide], at GST-PPARG-LBD, the IC50 was 5470 nM.

For `O=C(NCC1CC1)c1ccc2c(c1)ncn2Cc1ccc(-c2ccccc2C(=O)O)cc1` [Compound 17, 4′-((5 ((cyclopropylmethyl)carbamoyl)-1H-benzo[d]imidazol-1-yl)methyl)-[1,1′-biphenyl]-2-carboxylic acid], at GST-PPARG-LBD, the IC50 is 22100 nM.

Regarding MRL24 [reference compound], the “transactivation of the reporter, of rosiglitazone response” value in the experiment with PPARG [3] (relative to rosiglitazone) is given as “about 25%”.

Regarding `CC(C)c1cccc([C@H](C)NC(=O)c2ccc3c(c2)ncn3Cc2ccc(-c3cccnc3C(=O)O)cc2)c1` [Compound 24, (S)-3-(4-((5-(1-(3-isopropylphenyl)ethylcarbamoyl)-1H-benzo[d]imidazol-1-yl)methyl)phenyl)picolinic acid], on GST-PPARG-LBD, the IC50 was determined as 2130 nM.

Take `CN(CCOc1ccc(CC2SC(=O)NC2=O)cc1)c1ccccn1` (centres unmarked) [rosiglitazone, reference compound]: in the experiment on PPARG [3], the “activation of the PPRE reporter” value is on record as “about 5 fold”.

Turning to `CC(C)c1cccc([C@H](C)NC(=O)c2ccc3c(c2)ncn3Cc2ccc(-c3ccccc3CO)cc2)c1` [Compound 21, (S)-1-((2′-(hydroxymethyl)biphenyl-4-yl)methyl)-N-(1-(3-isopropylphenyl)ethyl)-1H-benzo[d]imidazole-5-carboxamide], the IC50 on GST-PPARG-LBD is 6490 nM.

These data come from patent publication US9309227B2, “N-biphenylmethylbenzimidazole modulators of PPARG” (The Scripps Research Institute, priority 2011, dated 2016).
